The source of these data is PubChem BioAssay AID200 (DTP/NCI, 2004).

The assay relates to B6C3F1 mice, B16 melanoma ip, median survival T/C. Briefly: NCI In Vivo Anticancer Drug Screen. Data for tumor model B16 Melanoma (intraperitoneal) in B6C3F1 mice. The note with it: endpoint: median survival time, schedule: Q01DX009 (ip), higher = longer survival. Put shortly: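 Antitumor effect was judged in mice with transplanted tumors by dividing the treated group's survival measure by that of vehicle controls.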

Setting [1] is: dose: 3.12 mg/kg/injection, vehicle: saline with Tween-80.
Setting [2] is: dose: 6.25 mg/kg/injection, vehicle: saline with Tween-80.
The mark [3] stands for this setting: dose: 12.5 mg/kg/injection, vehicle: Klucel (hydroxypropylcellulose) (HPC).
Setting [4] is: dose: 25.0 mg/kg/injection, vehicle: Klucel (hydroxypropylcellulose) (HPC).
Where [5] appears, read: dose: 50.0 mg/kg/injection, vehicle: Klucel (hydroxypropylcellulose) (HPC).
The mark [6] stands for this setting: dose: 100.0 mg/kg/injection, vehicle: Klucel (hydroxypropylcellulose) (HPC).
The mark [7] stands for this setting: dose: 200.0 mg/kg/injection, vehicle: Klucel (hydroxypropylcellulose) (HPC).
[8] abbreviates: dose: 12.5 mg/kg/injection, vehicle: saline with Tween-80.
Setting [9] is: dose: 25.0 mg/kg/injection, vehicle: saline with Tween-80.
Setting [10] is: dose: 50.0 mg/kg/injection, vehicle: saline with Tween-80.
Where [11] appears, read: dose: 100.0 mg/kg/injection, vehicle: saline with Tween-80.

“And” between values parts separate entries of the source, which are not always exact repeats. Equal entries are not always repeated. Toxic doses and inconclusive results are not listed.

As for `C#CCNC1=C(C)C(=O)C2=C(C1=O)[C@H](COC(N)=O)[C@]1(OC)[C@@H]3N[C@@H]3CN21`, the T/C is 91 % of control (dose: 0.75 mg/kg/injection, vehicle: distilled water + Tween-80); 98 % of control (dose: 1.5 mg/kg/injection, vehicle: distilled water + Tween-80); 241 % of control (dose: 6.25 mg/kg/injection, vehicle: distilled water + Tween-80); 98 % of control (dose: 12.0 mg/kg/injection, vehicle: distilled water + Tween-80).
`CCCCCCCCCCC(OC(C)=O)C1CCC(C2CCC(C(O)CCCCCCCCCCCCC3C=C(C)OC3=O)O2)O1` (configuration not stated): the T/C by setting is: (dose: 0.25 mg/kg/injection, vehicle: water) 97 % of control; (dose: 0.5 mg/kg/injection, vehicle: water) 95 % of control; (dose: 1.0 mg/kg/injection, vehicle: water) 93 % of control; (dose: 2.0 mg/kg/injection, vehicle: water) 100 % of control; (dose: 4.0 mg/kg/injection, vehicle: water) 100 % of control.
As to `[Cl][Pt+2][Cl].[NH-]C1CCC1.[NH2-]`, the T/C is 151 % of control (dose: 0.75 mg/kg/injection, vehicle: saline) and 205 % of control (dose: 3.0 mg/kg/injection, vehicle: saline).
`CCC1=C2C(=O)c3ccccc3C2=C(C)S(=O)(=O)O1`: the T/C is, setting by setting: (dose: 1.56 mg/kg/injection, vehicle: saline with Tween-80) 98 % of control; under setting [1], 98 % of control; under setting [2], 91 % of control and 93 % of control.
Take `O=C(NNC(=O)c1cccc(C(=O)NNC(=O)c2ccc(Cl)c(Cl)c2)n1)c1ccc(Cl)c(Cl)c1`: the T/C by setting is: under setting [3], 94 % of control and 105 % of control; under setting [4], 102 % of control; under setting [5], 91 % of control and 102 % of control; under setting [6], 94 % of control and 103 % of control; under setting [7], 105 % of control.
On to `CC(O)C(NC(=O)OCC1c2ccccc2-c2ccccc21)C(=O)O` (configuration not stated), for which the T/C runs as follows: under setting [3], 94 % of control and 98 % of control; under setting [4], 88 % of control and 96 % of control; under setting [5], 100 % of control and 101 % of control; under setting [6], 93 % of control and 98 % of control; under setting [7], 90 % of control and 100 % of control.
Consider `O=NN(CCCl)C(=O)NCCO`, for which the T/C is 102 % of control (dose: 1.5 mg/kg/injection, vehicle: water); 122 % of control (dose: 1.56 mg/kg/injection, vehicle: water); 104 % of control (dose: 3.0 mg/kg/injection, vehicle: water); 189 % of control (dose: 3.12 mg/kg/injection, vehicle: water); 105 % of control (dose: 6.0 mg/kg/injection, vehicle: water); 201 % of control (dose: 6.25 mg/kg/injection, vehicle: water). In addition, the T/C was 109 % of control (dose: 12.0 mg/kg/injection, vehicle: water) and 194 % of control (dose: 12.5 mg/kg/injection, vehicle: water).
With `CC(C)C(NC(=O)OC(C)(C)C)C(=O)O` (configuration not stated), the T/C under setting [6] was 90 % of control.
As to `Cc1c2cc[n+](CCN3CCCCC3)cc2c(C)c2c1[nH]c1ccc(O)cc12`, the T/C runs as follows: (dose: 6.25 mg/kg/injection, vehicle: suspension in saline) 153 % of control; (dose: 12.5 mg/kg/injection, vehicle: suspension in saline) 204 % of control; (dose: 25.0 mg/kg/injection, vehicle: saline) 172 % of control and 189 % of control.
In the case of `CC(C)(O)[C@H]1[C@@H]2OC(=O)[C@H]1[C@]1(O)C[C@H]3OC34C(=O)O[C@H]2[C@@]41C` (some centres not stated) (tested in a mixture with another compound), the T/C reads like this: (dose: 0.25 mg/kg/injection, vehicle: Klucel (hydroxypropylcellulose) (HPC)) 110 % of control; (dose: 0.5 mg/kg/injection, vehicle: Klucel (hydroxypropylcellulose) (HPC)) 99 % of control; (dose: 1.0 mg/kg/injection, vehicle: Klucel (hydroxypropylcellulose) (HPC)) 108 % of control; (dose: 2.0 mg/kg/injection, vehicle: Klucel (hydroxypropylcellulose) (HPC)) 111 % of control.
As to `CS(=O)(=O)CS(=O)(=O)OCCCl`, the T/C is, setting by setting: under setting [2], 114 % of control; under setting [8], 116 % of control; under setting [9], 169 % of control and 178 % of control; under setting [10], 228 % of control and 270 % of control; under setting [11], 331 % of control.
Consider `CCC1(O)C(=O)OCc2c1cc1n(c2=O)Cc2cc3ccccc3nc2-1` (configuration not stated), for which the T/C (dose: 0.75 mg/kg/injection, vehicle: other) was 156 % of control and the T/C (dose: 1.5 mg/kg/injection, vehicle: other) was 165 % of control.
As for `ClC1=C(Cl)C(Cl)=C(Cl)C1=Cc1ccccc1`, the T/C was 112 % of control under setting [1], 98 % of control under setting [2], 106 % of control under setting [8] and 101 % of control under setting [9].
`O=C(Nc1cccc(Cl)c1)C1CCCC1=Nc1cccc(Cl)c1` (configuration not stated): the T/C was 99 % of control under setting [10]; 96 % of control under setting [11]; 91 % of control (dose: 200.0 mg/kg/injection, vehicle: saline with Tween-80).
Regarding `CCCCCCCOc1ccc(C(=O)O)cc1`, the T/C is 106 % of control under setting [3], 108 % of control under setting [4] and 114 % of control under setting [5].
